From patent publication EP0908457B1, “3-(1,2-benzisothiazol- and isoxazol-5-Y1)-2,4(1H,3H)-pyrimidinedione or thione and 3-(1,2-benzisothiazol- and isoxazol-5-y1)-4(3H)-pyrimidinone or thione herbicidal agents” (BASF AKTIENGESELLSCHAFT, priority 1997, dated 1999)

What was measured:
Sagittaria pygmaea, L. = experiment: Preemergence weed control under flooded paddy conditions, SAGPY (Arrowhead (Pygmaea)); format: in vivo; details: flooded paddy, rated three to four weeks after treatment; as to herbicidal effect rating, SAGPY: meaning of each grade not given here
[1] = system: Monochoria vaginalis, Presl.; experiment: Preemergence weed control under flooded paddy conditions, MOOVA (Monochoria); format: in vivo; details: flooded paddy, rated three to four weeks after treatment; as to herbicidal effect rating, MOOVA: meaning of each grade not given here
Cyperus iria = experiment: Preemergence weed control under flooded paddy conditions, CYPIR (Rice Flatsedge); format: in vivo; details: flooded paddy, rated three to four weeks after treatment; as to herbicidal effect rating, CYPIR: meaning of each grade not given here
[2] = system: Cyperus serotinus, Rottb.; experiment: Preemergence weed control under flooded paddy conditions, CYPSE (Flatsedge); format: in vivo; details: rated three to four weeks after treatment; as to herbicidal effect rating, CYPSE: meaning of each grade not given here
[3] = system: Echinochloa oryzoides (Ard.) Fritsch.; experiment: Preemergence weed control under flooded paddy conditions, ECHORC (Watergrass (Calif.)); format: in vivo; details: flooded paddy, rated three to four weeks after treatment; as to herbicidal effect rating, ECHORC: meaning of each grade not given here
[4] = system: Oryza sativa, (L.) Tebonnet; experiment: Rice tolerance to post-transplant applications under flooded paddy conditions (Example 187), ORYSAT (Rice, Tebonnet); details: rated three to four weeks after treatment; as to herbicidal effect rating ORYSAT: meaning of each grade not given here
[5] = 0.0313 kg/ha, preemergence weeds
[6] = 0.0625 kg/ha, preemergence weeds
[7] = 0.1250 kg/ha, preemergence weeds
[8] = 0.2500 kg/ha, preemergence weeds
[9] = Rate 0.0320 kg/ha, preemergence
[10] = Rate 0.0620 kg/ha, preemergence
[11] = Rate 0.1250 kg/ha, preemergence
[12] = Rate 0.2500 kg/ha, preemergence
[13] = Rate 0.5000 kg/ha, preemergence

Cn1c(C(F)(F)F)cc(=O)n(-c2ccc3snc(COC(=O)c4ccccc4)c3c2)c1=O [Example 143, 3-[3-(Hydroxymethyl)-1,2-benzisothiazol-5-yl]-1-methyl-6-(trifluoromethyl)-2,4(1H,3H)-pyrimidinedione, benzoate (ester)]
herbicidal effect rating, SAGPY (Sagittaria pygmaea, L.; [5]): 0.0 | herbicidal effect rating, SAGPY (Sagittaria pygmaea, L.; [6]): 0.0 | herbicidal effect rating, SAGPY (Sagittaria pygmaea, L.; [7]): 0.0 | herbicidal effect rating, SAGPY (Sagittaria pygmaea, L.; [8]): 0.0 | herbicidal effect rating, MOOVA [1, 5]: 9.0 | herbicidal effect rating, MOOVA [1, 6]: 9.0 | herbicidal effect rating, MOOVA [1, 7]: 9.0 | herbicidal effect rating, MOOVA [1, 8]: 9.0 | herbicidal effect rating, CYPIR (Cyperus iria; [5]): 0.0 | herbicidal effect rating, CYPIR (Cyperus iria; [6]): 0.0 | herbicidal effect rating, CYPIR (Cyperus iria; [7]): 0.0 | herbicidal effect rating, CYPIR (Cyperus iria; [8]): 0.0 | herbicidal effect rating, CYPSE [2, 5]: 0.0 | herbicidal effect rating, CYPSE [2, 6]: 0.0 | herbicidal effect rating, CYPSE [2, 7]: 0.0 | herbicidal effect rating, CYPSE [2, 8]: 0.0 | herbicidal effect rating, ECHORC [3, 5]: 0.0 | herbicidal effect rating, ECHORC [3, 6]: 0.0 | herbicidal effect rating, ECHORC [3, 7]: 2.0 | herbicidal effect rating, ECHORC [3, 8]: 6.0 | herbicidal effect rating, ORYSAT (rice tolerance) ([4]; 0.0313 kg/ha): 3.0 | herbicidal effect rating, ORYSAT (rice tolerance) ([4]; 0.0625 kg/ha): 3.0 | herbicidal effect rating, ORYSAT (rice tolerance) ([4]; 0.1250 kg/ha): 3.0 | herbicidal effect rating, ORYSAT (rice tolerance) ([4]; 0.2500 kg/ha): 4.0

COCCOCCOC(=O)c1nsc2ccc(-n3c(=O)cc(C(F)(F)F)n(C)c3=O)cc12 [Example 389, 1,2-Benzisothiazole-3-carboxylic acid, 5-[3,6-dihydro-3-methyl-2,6-dioxo-4-(trifluoromethyl)-1(2H)-pyrimidinyl]-, 2-(2-methoxyethoxy)ethyl ester]
herbicidal effect rating, SAGPY (Sagittaria pygmaea, L.; [9]): 3.0 | herbicidal effect rating, SAGPY (Sagittaria pygmaea, L.; [10]): 4.0 | herbicidal effect rating, SAGPY (Sagittaria pygmaea, L.; [11]): 7.0 | herbicidal effect rating, SAGPY (Sagittaria pygmaea, L.; [12]): 9.0 | herbicidal effect rating, MOOVA [1, 9]: 7.0 | herbicidal effect rating, MOOVA [1, 10]: 9.0 | herbicidal effect rating, MOOVA [1, 11]: 9.0 | herbicidal effect rating, MOOVA [1, 12]: 9.0 | herbicidal effect rating, CYPIR (Cyperus iria; [9]): 5.0 | herbicidal effect rating, CYPIR (Cyperus iria; [10]): 5.0 | herbicidal effect rating, CYPIR (Cyperus iria; [11]): 7.0 | herbicidal effect rating, CYPIR (Cyperus iria; [12]): 9.0 | herbicidal effect rating, CYPSE [2, 9]: 0.0 | herbicidal effect rating, CYPSE [2, 11]: 7.0 | herbicidal effect rating, CYPSE [2, 12]: 8.0 | herbicidal effect rating, ECHORC [3, 9]: 3.0 | herbicidal effect rating, ECHORC [3, 10]: 4.0 | herbicidal effect rating, ECHORC [3, 11]: 4.0 | herbicidal effect rating, ECHORC [3, 12]: 7.0 | herbicidal effect rating ORYSAT ([4]; Rate 0.0320 kg/ha): 3.0 | herbicidal effect rating ORYSAT ([4]; Rate 0.0620 kg/ha): 4.0 | herbicidal effect rating ORYSAT ([4]; Rate 0.1250 kg/ha): 4.0 | herbicidal effect rating ORYSAT ([4]; Rate 0.2500 kg/ha): 5.0

COC(=O)C(C)Oc1c(-c2nsc3ccc(-n4c(=O)cc(C(F)(F)F)n(C)c4=O)cc23)ccc(C)c1C (centres unmarked) [Example 275, Propionic acid, 2-{{6-{5-[3,6-dihydro-3-methyl-2,6-dioxo-4-(trifluoromethyl)-1(2H)-pyrimidinyl]-1,2-benzisothiazol-3-yl}-2,3-xylyl}oxy}-, methyl ester]
SAGPY herbicidal effect rating (Sagittaria pygmaea, L.; [9]): 0.0 | SAGPY herbicidal effect rating (Sagittaria pygmaea, L.; [10]): 0.0 | SAGPY herbicidal effect rating (Sagittaria pygmaea, L.; [11]): 3.0 | SAGPY herbicidal effect rating (Sagittaria pygmaea, L.; [12]): 9.0 | SAGPY herbicidal effect rating (Sagittaria pygmaea, L.; [13]): 0.0 | MOOVA herbicidal effect rating [1, 9]: 6.0 | MOOVA herbicidal effect rating [1, 10]: 9.0 | MOOVA herbicidal effect rating [1, 11]: 9.0 | MOOVA herbicidal effect rating [1, 12]: 9.0 | MOOVA herbicidal effect rating [1, 13]: 9.0 | CYPIR herbicidal effect rating (Cyperus iria; [9]): 0.0 | CYPIR herbicidal effect rating (Cyperus iria; [10]): 4.0 | CYPIR herbicidal effect rating (Cyperus iria; [11]): 6.0 | CYPIR herbicidal effect rating (Cyperus iria; [12]): 7.0 | CYPIR herbicidal effect rating (Cyperus iria; [13]): 0.0 | CYPSE herbicidal effect rating [2, 9]: 9.0 | CYPSE herbicidal effect rating [2, 10]: 9.0 | CYPSE herbicidal effect rating [2, 11]: 9.0 | CYPSE herbicidal effect rating [2, 12]: 9.0 | CYPSE herbicidal effect rating [2, 13]: 0.0 | ECHORC herbicidal effect rating [3, 9]: 3.7 | ECHORC herbicidal effect rating [3, 10]: 3.9 | ECHORC herbicidal effect rating [3, 11]: 4.1 | ECHORC herbicidal effect rating [3, 12]: 9.0 | ECHORC herbicidal effect rating [3, 13]: 7.0 | ORYSAT herbicidal effect rating ([4]; Rate 0.0320 kg/ha): 0.0 | ORYSAT herbicidal effect rating ([4]; Rate 0.0620 kg/ha): 0.0 | ORYSAT herbicidal effect rating ([4]; Rate 0.1250 kg/ha): 3.0 | ORYSAT herbicidal effect rating ([4]; Rate 0.2500 kg/ha): 4.0 | ORYSAT herbicidal effect rating ([4]; Rate 0.5000 kg/ha): 5.0

COC(=O)c1nsc2cc(F)c(-n3c(=O)cc(C(F)(F)F)n(C)c3=O)cc12 [Example 513, 1,2-Benzisothiazole-3-carboxylic acid, 5-[3,6-dihydro-3-methyl-2,6-dioxo-4-(trifluoromethyl)-1(2H)-pyrimidinyl]-6-fluoro-, methyl ester]
SAGPY herbicidal rating (Sagittaria pygmaea, L.; 0.0320 kg/ha, preemergence): 9.0 | SAGPY herbicidal rating (Sagittaria pygmaea, L.; 0.0620 kg/ha, preemergence): 9.0 | SAGPY herbicidal rating (Sagittaria pygmaea, L.; 0.1250 kg/ha, preemergence): 9.0 | SAGPY herbicidal rating (Sagittaria pygmaea, L.; 0.2500 kg/ha, preemergence): 9.0 | MOOVA herbicidal rating ([1]; 0.0320 kg/ha, preemergence): 9.0 | MOOVA herbicidal rating ([1]; 0.0620 kg/ha, preemergence): 9.0 | MOOVA herbicidal rating ([1]; 0.1250 kg/ha, preemergence): 9.0 | MOOVA herbicidal rating ([1]; 0.2500 kg/ha, preemergence): 9.0 | CYPIR herbicidal rating (Cyperus iria; 0.0320 kg/ha, preemergence): 4.0 | CYPIR herbicidal rating (Cyperus iria; 0.0620 kg/ha, preemergence): 4.0 | CYPIR herbicidal rating (Cyperus iria; 0.1250 kg/ha, preemergence): 6.0 | CYPIR herbicidal rating (Cyperus iria; 0.2500 kg/ha, preemergence): 9.0 | CYPSE herbicidal rating ([2]; 0.0320 kg/ha, preemergence): 9.0 | CYPSE herbicidal rating ([2]; 0.0620 kg/ha, preemergence): 9.0 | CYPSE herbicidal rating ([2]; 0.1250 kg/ha, preemergence): 9.0 | CYPSE herbicidal rating ([2]; 0.2500 kg/ha, preemergence): 9.0 | ECHORC herbicidal rating ([3]; 0.0320 kg/ha, preemergence): 0.0 | ECHORC herbicidal rating ([3]; 0.0620 kg/ha, preemergence): 5.0 | ECHORC herbicidal rating ([3]; 0.1250 kg/ha, preemergence): 7.0 | ECHORC herbicidal rating ([3]; 0.2500 kg/ha, preemergence): 8.0 | ORYSAT herbicidal rating (rice tolerance) ([4]; 0.0320 kg/ha): 9.0 | ORYSAT herbicidal rating (rice tolerance) ([4]; 0.0620 kg/ha): 7.0 | ORYSAT herbicidal rating (rice tolerance) ([4]; 0.1250 kg/ha): 9.0 | ORYSAT herbicidal rating (rice tolerance) ([4]; 0.2500 kg/ha): 9.0

COC(=O)COc1cc(C)ccc1-c1nsc2cc(F)c(-n3c(=O)cc(C(F)(F)F)n(C)c3=O)cc12 [Example 479, Acetic acid, {{6-{5-[3,6-dihydro-3-methyl-2,6-dioxo-4-(trifluoromethyl)-1(2H)-pyrimidinyl]-6-fluoro-1,2-benzisothiazol-3-yl}-m-tolyl}oxy}-, methyl ester]
SAGPY herbicidal rating (Sagittaria pygmaea, L.; 0.0320 kg/ha, preemergence): 3.0 | SAGPY herbicidal rating (Sagittaria pygmaea, L.; 0.0620 kg/ha, preemergence): 5.0 | SAGPY herbicidal rating (Sagittaria pygmaea, L.; 0.1250 kg/ha, preemergence): 6.0 | SAGPY herbicidal rating (Sagittaria pygmaea, L.; 0.2500 kg/ha, preemergence): 8.0 | MOOVA herbicidal rating ([1]; 0.0320 kg/ha, preemergence): 0.0 | MOOVA herbicidal rating ([1]; 0.0620 kg/ha, preemergence): 7.0 | MOOVA herbicidal rating ([1]; 0.1250 kg/ha, preemergence): 9.0 | MOOVA herbicidal rating ([1]; 0.2500 kg/ha, preemergence): 9.0 | CYPIR herbicidal rating (Cyperus iria; 0.0320 kg/ha, preemergence): 0.0 | CYPIR herbicidal rating (Cyperus iria; 0.0620 kg/ha, preemergence): 0.0 | CYPIR herbicidal rating (Cyperus iria; 0.1250 kg/ha, preemergence): 5.0 | CYPIR herbicidal rating (Cyperus iria; 0.2500 kg/ha, preemergence): 9.0 | CYPSE herbicidal rating ([2]; 0.0320 kg/ha, preemergence): 0.0 | CYPSE herbicidal rating ([2]; 0.0620 kg/ha, preemergence): 7.0 | CYPSE herbicidal rating ([2]; 0.1250 kg/ha, preemergence): 9.0 | CYPSE herbicidal rating ([2]; 0.2500 kg/ha, preemergence): 9.0 | ECHORC herbicidal rating ([3]; 0.0320 kg/ha, preemergence): 7.0 | ECHORC herbicidal rating ([3]; 0.0620 kg/ha, preemergence): 7.0 | ECHORC herbicidal rating ([3]; 0.1250 kg/ha, preemergence): 9.0 | ECHORC herbicidal rating ([3]; 0.2500 kg/ha, preemergence): 9.0 | ORYSAT herbicidal rating (rice tolerance) ([4]; 0.0320 kg/ha): 5.0 | ORYSAT herbicidal rating (rice tolerance) ([4]; 0.0620 kg/ha): 5.0 | ORYSAT herbicidal rating (rice tolerance) ([4]; 0.1250 kg/ha): 9.0 | ORYSAT herbicidal rating (rice tolerance) ([4]; 0.2500 kg/ha): 9.0
